Source: US6846821B2, “Tetrahydrothiopy ranphthalazinone derivatives as PDE4 inhibitors” (Altana Pharma, AG, priority 1999, dated 2005)

Columns and labels:
PDE4 = assay: Inhibition of PDE4 activity (method of Bauer and Schwabe, microtitre plates); format: biochemical; settings: measured as −logIC50 (mol/l)
Protocol: The activity test was carried out according to the method of Bauer and Schwabe, which was adapted to microtitre plates (Naunyn-Schmiederberg's Arch. Pharmacol. 311, 193-198, 1980). In this test, the PDE reaction is carried out in the first step. In a second step, the resultant 5′-nucleotide is cleaved to the uncharged nucleoside by a snake venom 5′-nucleotidase from Crotalus Atrox. In the third step, the necleoside is separated from the remaining charged substrate on ion exchange columns. The columns are eluted directly into minivials using 2 ml of 30 mM ammonium formate (pH 6.0), to which a further 2 ml of scintillation fluid is added for counting.
The inhibitory values determined for the compounds according to the invention follow from the following table A which the numbers of the compounds correspond to the numbers of the examples.

Row | SMILES | Inhibition of PDE4 activity, −logIC50 (PDE4) | melting point
1 | COc1ccc(C2=NN(C3CCSCC3)C(=O)[C@H]3CC=CC[C@@H]23)c2c1OC(C)(C)C2 (relative stereo) [compound 1, (cis)-4-(2,3-Dihydro-2,2-dimethyl-7-methoxybenzofuran-4-yl)-2-(tetrahydrothiopyran-4-yl)-4a,5,8,8a-tetrahydro-2H-phthalazin-1-one] | 9.34 mol/l | 163 to 164 °C
2 | COc1ccc(C2=NN(C3CCSCC3)C(=O)[C@H]3CC=CC[C@@H]23)cc1Cl (relative stereo) [compound 4, (cis)-4-(3-Chloro-4-methoxyphenyl)-2-(tetrahydrothiopyran-4-yl)-4a,5,8,8a-tetrahydro-2H-phthalazin-1-one] | – | 170 to 171 °C
3 | COc1ccc(C2=NN(C3CCS(=O)(=O)CC3)C(=O)C3CC=CCC23)cc1OC (stereo not drawn) [compound 2, (cis)-4-(3,4-Dimethoxyphenyl)-2-(1,1-dioxohexahydro-1l^6-thiopyran-4-yl)-4a,5,8,8a-tetrahydro-2H-phthalazin-1-one] | 8.45 mol/l | 196 to 198 °C
4 | COc1ccc(C2=NN(C3CC[S+]([O-])CC3)C(=O)C3CC=CCC23)cc1OC (stereo not drawn) [compound 3, (cis)-4-(3,4-Dimethoxyphenyl)-2-(1-oxo-hexahydro-1l^4-thiopyran-4-yl)-4a,5,8,8a-tetrahydro-2H-phthalazin-1-one] | 8.51 mol/l | –
5 | COc1ccc(C2=NN(C3CC[S+]([O-])CC3)C(=O)C3CC=CCC23)cc1Cl (stereo not drawn) [compound 5, (cis)-4-(3-Chloro4-methoxyphenyl)-2-(1-oxo-hexahydro-1l^4-thiopyran-4-yl)-4a,5,8,8a-tetrahydro-2H-phthalazin-1-one] | 8.20 mol/l | 197 to 199 °C
6 | CCOc1ccc(C2=NN(C3CCS(=O)(=O)CC3)C(=O)C3CC=CCC23)cc1OCC (stereo not drawn) [compound 6, (cis)-4-(3,4-Diethoxyphenyl)-2-(1,1-dioxohexahydro-1l^6-thiopyran-4-yl)-4a,5,8,8a-tetrahydro-2H-phthalazin-1-one] | 8.02 mol/l | –
7 | COc1ccc(C2=NN(C3CCS(=O)(=O)CC3)C(=O)C3CC=CCC23)c2c1OC(C)(C)C2 (stereo not drawn) [compound 7, (cis)-4-(2,3-Dihydro-2,2-dimethyl-7-methoxybenzofuran-4-yl)-2-(1,1-dioxohexahydro-1l^6-thiopyran4-yl)-4a,5,8,8a-tetrahydro-2H-phthalazin-1-one] | 9.00 mol/l | 261 to 263 °C
8 | COc1ccc(C2=NN(C3CCS(=O)(=O)CC3)C(=O)C3CC=CCC23)cc1OC [compound 9, (4aS,8aR)-(cis)-4-(3,4-Dimethoxyphenyl)-2-(1,1-dioxohexahydro-1l^6-thiopyran-4-yl)-4a,5,8,8a-tetrahydro-2H-phthalazin-1-one] | 9.20 mol/l | 203 to 204 °C
9 | COc1ccc(C2=NN(C3CCS(=O)(=O)CC3)C(=O)C3CC=CCC23)cc1OC1CCCC1 (stereo not drawn) [compound 10, (cis)-4-(3-Cyclopentyloxy-4-methoxyphenyl)-2-(1,1,-dioxohexahydro-1l^6-thiopyran-4-yl)-4a,5,8,8a-tetrahydro-2H-phthalazin-1-one] | 9.43 mol/l | –
